In general, Kd refers to the equilibrium constant for the complex coming apart. The term stoichiometry N denotes the number of molecules, sites or subunits per partner or assembly.

Test [1] addresses T1, AdeB multidrug efflux pump (Acinetobacter baumannii, UniProt Q2FD70). Kind of test: fluorescence polarization Kd with purified AdeB; cryo-EM structures in lipidic nanodiscs (7KGG, 7KGH, 7KGI). It counts as binding. Details: full-length; homotrimer. In general terms: Polarisation of emitted light reports the rotation of a fluorescent probe.
In test [2] the target is T1, AdeB multidrug efflux pump. Kind of test: fluorescence polarization titration with purified AdeB. It counts as binding. Details: full-length.
Test [3] deals with Acinetobacter baumannii AdeB multidrug efflux pump (Acinetobacter baumannii (AB0057)). Kind of test: cryo-EM structure; AdeB in lipidic nanodiscs (MSP 1E3D1, E. coli total extract lipid; 20 mM Tris-HCl pH 7.5, 100 mM NaCl); 2 uM AdeB-nanodisc incubated with 20 uM ethidium bromide for 2 h; six conformational classes (three apo, three Et-bound) sorted from one sample.
The target of test [4] is CusB (Escherichia coli) (UniProt P77239). Kind of test: ITC. To be noted: cited from earlier work.

Chain of CusA (P38054 whole entry): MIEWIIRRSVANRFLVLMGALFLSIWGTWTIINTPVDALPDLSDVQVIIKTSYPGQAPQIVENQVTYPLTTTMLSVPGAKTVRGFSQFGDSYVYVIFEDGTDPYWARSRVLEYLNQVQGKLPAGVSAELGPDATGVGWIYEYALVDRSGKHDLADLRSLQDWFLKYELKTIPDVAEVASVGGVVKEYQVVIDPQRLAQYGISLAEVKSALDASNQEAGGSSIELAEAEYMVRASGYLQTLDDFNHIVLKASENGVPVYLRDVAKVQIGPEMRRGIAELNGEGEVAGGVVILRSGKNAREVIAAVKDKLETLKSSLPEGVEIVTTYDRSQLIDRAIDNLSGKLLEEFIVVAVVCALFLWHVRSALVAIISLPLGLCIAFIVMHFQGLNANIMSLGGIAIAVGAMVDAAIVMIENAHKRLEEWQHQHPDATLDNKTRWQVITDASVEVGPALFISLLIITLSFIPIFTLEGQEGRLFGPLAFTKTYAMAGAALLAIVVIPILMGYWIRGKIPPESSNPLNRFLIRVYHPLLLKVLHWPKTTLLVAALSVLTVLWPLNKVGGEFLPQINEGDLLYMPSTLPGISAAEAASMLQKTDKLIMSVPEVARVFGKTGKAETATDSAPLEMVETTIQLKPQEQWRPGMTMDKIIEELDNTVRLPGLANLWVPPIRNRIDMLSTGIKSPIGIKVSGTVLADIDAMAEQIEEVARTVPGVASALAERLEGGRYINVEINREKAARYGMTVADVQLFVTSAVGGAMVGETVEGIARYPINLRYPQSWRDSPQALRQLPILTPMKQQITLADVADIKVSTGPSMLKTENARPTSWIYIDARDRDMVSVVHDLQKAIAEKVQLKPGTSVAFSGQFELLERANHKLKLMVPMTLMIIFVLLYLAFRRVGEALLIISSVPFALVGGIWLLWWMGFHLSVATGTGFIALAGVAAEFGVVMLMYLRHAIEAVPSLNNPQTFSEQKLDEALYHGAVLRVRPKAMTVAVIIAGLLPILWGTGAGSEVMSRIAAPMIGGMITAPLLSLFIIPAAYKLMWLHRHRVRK

On to `CC[n+]1c(-c2ccccc2)c2cc(N)ccc2c2ccc(N)cc21` [Et, ethidium bromide], for which binding in test [1] was characterised by a dissociation constant (Kd) of 2.5 ± 0.1 µM.
In turn, `CC/N=c1\cc2oc3cc(NCC)c(C)cc3c(-c3ccccc3C(=O)OCC)c-2cc1C` [R6G, rhodamine 6G] gave a dissociation constant Kd in test [2] of 3.1 ± 0.1 µM.
Turning to “Acinetobacter baumannii AdeB multidrug efflux pump (natural protein)”, in test [3], the stoichiometry N stood at 3.
With CusA (from UniProt P38054), in test [4], the Kd is 5.1 µM.

The values above are taken from article PMC8545137, “Cryoelectron Microscopy Structures of AdeB Illuminate Mechanisms of Simultaneous Binding and Exporting of Substrates” (mBio, 2021).
